In US20090030024A1, “THIAZOLES AS FUNGICIDES” (priority 2005, published 2009):
Like-named read-outs stand apart in the source and are kept apart here.

How the values were obtained:
[1] = test system: Fusarium graminearum; experiment: whole plant or invertebrate; assay type: in vivo; conditions: in Hordeum vulgare, 96 h, read-out: efficacy
[2] = logP determination by retention times (calibration with alkan-2-ones)
[3] = test system: Phytophthora infestans; experiment: whole plant or invertebrate; assay type: in vivo; conditions: in Solanum lycopersicum, 168 h, read-out: efficacy
[4] = logP, * HPLC reversed-phase C18, 40° C., mobile phase 0.1% aqueous formic acid and acetonitrile, linear gradient 10% to 95% acetonitrile

**Q.** What does the source list for `CCc1nc(C)c(-c2ccnc(Nc3cccc(C(C)=O)c3)n2)s1` [Example 9, 1-(3-{[4-(2-ethyl-4-methyl-1,3-thiazol-5-yl)pyrimidin-2-yl]amino}phenyl)ethanone]?
**A.** pest or weed control at 1000 ppm [1]: ≥ 70%; chromatographic logP [2]: 2.7

**Q.** With `COCCOC(=O)Nc1ccc(Nc2nccc(-c3sc(N)nc3C)n2)cc1` [Example 69, 2-methoxyethyl-(4-{[4-(2-amino-4-methyl-1,3-thiazol-5-yl)pyrimidin-2-yl]amino}phenyl)carbamate] as the compound, how does the pest or weed control at 500 ppm [3] read?
**A.** Its pest or weed control at 500 ppm is ≥ 70%.

**Q.** And the chromatographic logP [2]?
**A.** The chromatographic logP was 1.4.

**Q.** For `Cc1nc(C)c(-c2ccnc(Nc3ccc(F)cc3)n2)s1` [Example 186, 4-(2,4-dimethyl-1,3-thiazol-5-yl)-N-(4-fluorophenyl)pyrimidine-2-amine], which pest or weed control at 500 ppm [3] is on record?
**A.** The pest or weed control at 500 ppm was ≥ 70%.

**Q.** And the chromatographic logP [2]?
**A.** The chromatographic logP was 2.65.

**Q.** With `COc1cc(Nc2nccc(-c3sc(N)nc3C)n2)cc(OC)c1OC` [Example 201, 4-(2-amino-4-methyl-1,3-thiazol-5-yl)-N-(3,4,5-trimethoxyphenyl)pyrimidine-2-amine] as the compound, how does the pest or weed control at 500 ppm [3] read?
**A.** The pest or weed control at 500 ppm was ≥ 70%.

**Q.** And the chromatographic logP [2]?
**A.** The chromatographic logP was 1.51.

**Q.** For `COc1ccc(Nc2nccc(-c3sc(N)nc3C)n2)cc1Cl` [Example 203, 4-(2-amino-4-methyl-1,3-thiazol-5-yl)-N-(3-chloro-4-methoxyphenyl)pyrimidine-2-amine], which pest or weed control at 500 ppm [3] is on record?
**A.** Its pest or weed control at 500 ppm is ≥ 70%.

**Q.** What about the chromatographic logP [2] of the same compound?
**A.** The chromatographic logP was 1.63.

**Q.** With `Cc1nc(N)sc1-c1ccnc(Nc2ccccc2)n1` [Example 210, 4-(2-amino-4-methyl-1,3-thiazol-5-yl)-N-phenylpyrimidine-2-amine] as the compound, how does the pest or weed control at 500 ppm [3] read?
**A.** The pest or weed control at 500 ppm was ≥ 70%.

**Q.** What about the chromatographic logP [2] of the same compound?
**A.** Its chromatographic logP is 1.51.

**Q.** What does the source list for `COc1cc(Nc2nccc(-c3sc(C4CC4)nc3C)n2)cc(OC)c1OC` [Example 222, 4-(2-cyclopropyl-4-methyl-1,3-thiazol-5-yl)-N-(3,4,5-trimethoxyphenyl)pyrimidine-2-amine]?
**A.** pest or weed control at 1000 ppm [1]: ≥ 70%; chromatographic logP [2]: 2.77

**Q.** Which pest or weed control at 500 ppm [3] does the source give for `CCc1nc(C)c(-c2ccnc(Nc3ccc(F)cc3)n2)s1` [Example 239, 4-(2-ethyl-4-methyl-1,3-thiazol-5-yl)-N-(4-fluorophenyl)pyrimidine-2-amine] here?
**A.** The pest or weed control at 500 ppm was ≥ 70%.

**Q.** What about the chromatographic logP [2] of the same compound?
**A.** The chromatographic logP was 3.1.

**Q.** What does the source list for `Cc1nc(C)c(-c2ccnc(Nc3ccc(O)cc3)n2)s1` [Example 321, 4-{[4-(2,4-dimethyl-1,3-thiazol-5-yl)pyrimidin-2-yl]amino}phenol]?
**A.** pest or weed control at 500 ppm [3]: ≥ 70%; chromatographic logP [2]: 1.62

**Q.** What does the source list for `Cc1nc(C2CC2)sc1-c1ccnc(Nc2ccc(O)cc2)n1` [Example 324, 4-{[4-(2-cyclopropyl-4-methyl-1,3-thiazol-5-yl)pyrimidin-2-yl]amino}phenol]?
**A.** pest or weed control at 500 ppm [3]: ≥ 70%; chromatographic logP [2]: 2.01

**Q.** Which pest or weed control at 500 ppm [3] does the source give for `CCc1nc(C)c(-c2ccnc(Nc3ccc(O)cc3)n2)s1` [Example 327, 4-{[4-(2-ethyl-4-methyl-1,3-thiazol-5-yl)pyrimidin-2-yl]amino}phenol] here?
**A.** Its pest or weed control at 500 ppm is ≥ 70%.

**Q.** And the chromatographic logP [2]?
**A.** Its chromatographic logP is 1.88.

**Q.** Which results are given for `Cc1nc(C(C)C)sc1-c1ccnc(Nc2ccc(O)cc2)n1` [Example 329, 4-{[4-(2-isopropyl-4-methyl-1,3-thiazol-5-yl)pyrimidin-2-yl]amino}phenol]?
**A.** pest or weed control at 500 ppm [3]: ≥ 70%; chromatographic logP [2]: 2.18

**Q.** For `CCc1nc(C)c(-c2ccnc(Nc3ccc(NC(C)=O)cc3)n2)s1` [Example 460, N-(4-{[4-(2-ethyl-4-methyl-1,3-thiazol-5-yl)pyrimidin-2-yl]amino}phenyl)acetamide], which pest or weed control at 500 ppm [3] is on record?
**A.** Its pest or weed control at 500 ppm is ≥ 70%.

**Q.** And the chromatographic logP [2, 4]?
**A.** Its chromatographic logP is 1.88.

**Q.** Which pest or weed control at 500 ppm [3] does the source give for `Cc1nc(N)sc1-c1ccnc(Nc2ccc(CNC(=O)OC(C)(C)C)cc2)n1` [Example 628, tert-butyl-(4-{[4-(2-amino-4-methyl-1,3-thiazol-5-yl)pyrimidin-2-yl]amino}benzyl)carbamate] here?
**A.** The pest or weed control at 500 ppm was ≥ 70%.

**Q.** What about the chromatographic logP [2, 4] of the same compound?
**A.** The chromatographic logP was 1.86.

**Q.** With `Cc1nc(C2CC2)sc1-c1ccnc(Nc2ccc(CNC(=O)OC(C)(C)C)cc2)n1` [Example 630, tert-butyl-(4-{[4-(2-cyclopropyl-4-methyl-1,3-thiazol-5-yl)pyrimidin-2-yl]amino}benzyl)carbamate] as the compound, how does the pest or weed control at 500 ppm [3] read?
**A.** The pest or weed control at 500 ppm was ≥ 70%.

**Q.** And the chromatographic logP [2, 4]?
**A.** The chromatographic logP was 3.46.
